According to publication PMC9882606, “Rationally designed inhibitors of the Musashi protein-RNA interaction by hotspot mimicry” (Research Square, 2023):

Key:
[1] = test system: PC9 cells; assay: CellTiter-Blue cell viability, PC9; assay type: cell-based, human; details: PC9, 3 days, dose-response
Experimental: Figure 7: Cellular characterization of MSI2 inhibition by R12–8–44–3. (A) Quantification of mRNA immunoprecipitation (RIP) results. Cells were treated with 10 μM of the indicated compounds for 8 hours. After immunoprecipitation with anti-MSI2, mRNA targets were quantified. The amount of each target mRNA in the pulldown was calculated relative to the input, and results from all targets were normalized to PTP4A1. Treating cells with R12–8–44–3 disrupted the interaction with all four cognate mRNAs (PTP4A, SMAD3, EGFR, and MSI2). Data are presented as the average ± S.E.M. from at least 3 independent replicates. […] Cells were treated with indicated compounds at two concentrations (5 μM and 20 μM) for 48 hours, then protein levels of relevant MSI2 targets were determined (EGFR, SMAD3, and MSI2). One representative image is shown; quantification is presented as the average ± S.E.M. from at least 3 independent replicates, normalized first to beta-actin and then to DMSO-treated cells. (C) Cell viability dose-response quantified by CellTiter-Blue after 3 days (left) and cell proliferation with 10μM of compounds quantified by clonogenic assay after 7 days (right). […] (D) Cell viability quantified by clonogenic assay of PC9 cell line after 7-day treatment with 2 nM osimertinib (osi alone), osimertinib with 10 μM R12–8–44–3, or osimertinib with 10 μM R12-neg. […]

[2] = biological target: MSI2 (Homo sapiens, UniProt Q96DH6); assay: Cellular thermal shift assay (CETSA) in PC9 cells; assay type: cell-based; design: endogenous in cells; host or cells: PC9; details: PC9, 3 hours, 20 μM or 40 μM, heated to 49 °C
MSI2, sequence (Q96DH6 whole entry): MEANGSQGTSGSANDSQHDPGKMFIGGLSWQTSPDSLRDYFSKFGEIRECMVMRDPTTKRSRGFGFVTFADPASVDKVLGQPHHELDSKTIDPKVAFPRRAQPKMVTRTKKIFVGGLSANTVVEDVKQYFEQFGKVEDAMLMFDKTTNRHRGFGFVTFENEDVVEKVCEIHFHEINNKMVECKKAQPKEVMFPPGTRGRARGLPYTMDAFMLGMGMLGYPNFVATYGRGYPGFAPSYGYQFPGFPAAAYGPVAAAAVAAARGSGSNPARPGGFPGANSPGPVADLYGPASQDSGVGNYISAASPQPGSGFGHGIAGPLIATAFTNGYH
Excerpt: To explore the effect of these MSI2 inhibitors in a cancer-relevant cellular context, we selected two MSI2-dependent cancer cell lines: non-small cell lung cancer cell line PC9 and leukemia cell line K562 [73, 98–101]. Upon treatment of PC9 cells with Ro, R12–8–44–3, or negative control R12-neg, we found at multiple time points that cellular MSI2 protein levels were unchanged (Figure 6a). To confirm target engagement, we therefore adapted the cellular thermal shift assay (CETSA). […]
Figure 6: Direct cellular engagement of MSI2 interaction by R12–44–3. […] MSI2 protein abundance was then quantified and normalized to untreated sample. One representative image is shown; quantification is presented as the average ± S.E.M. from 3 independent replicates. […] Cells were briefly incubated at temperatures between 40 °C to 67 °C, then centrifuged and the amount of MSI2 remaining in the soluble fraction was quantified by Western blotting. […] One representative image is shown; quantification is presented as the average ± S.E.M. from 3 independent replicates, normalized first to beta-actin and then to DMSO control. […] One representative image is shown; quantification is presented as the average ± S.E.M. from 3 independent replicates, normalized first to beta-actin and then to DMSO control. […]

## Cc1cc(C(=O)OCc2nc(N)c3c(C)c(C)sc3n2)c(N)cc1F [R12–8–44–3]
[1]
  cell viability (CellTiter-Blue): no effect on cell growth/survival
[2]
  soluble MSI2 after heating (CETSA): confers protection against thermal-induced aggregation
